In US10766898B2, “Therapeutic compound for pain and synthesis thereof” (priority 2015, dated 2020):
“And” between values parts separate entries of the source, which are not always exact repeats. Equal entries are not always repeated.

System: heat hypersensitivity of λ-carrageenan-injected right hind paws of mice
Test: λ-carrageenan-induced paw inflammation, heat hypersensitivity on hotplate (57° C.), time until first response
Assay type: in vivo
Conditions: for Response time at 3.5 h, avg: average of n=5 animals; for Response time at 3.5 h, avg / Response time at 3.5 h: 10 mg/kg ip 30 min before 1% λ-carrageenan, hotplate 57° C., 3.5 h after carrageenan; for Response time at 3.5 h: individual animal, 10 mg/kg; for average response time compared with pretreatment baseline response time: n=5 animals, 10 mg/kg ip, 3.5 h after λ-carrageenan
Procedure: Intra plantar injection of 1% […] may be used to induce local inflammation to the paws of test subject mice. In general, local inflammation is expressed as paw swelling and increased sensitivity to heat stimuli. Therefore, the effect of a test item on changes in heat hypersensitivity can be assessed. Using the protocol set forth, the therapeutic effect of the compounds of Formula XVIII and XXII were evaluated.
Animals were dosed with a test compound at time zero (control where given vehicle only) at 10 mg/kg ip (test item was dissolved in a 20% […] solution). After 30 minutes the animals were slightly anesthetized with isoflurane, and 0.1 ml of a 1% λ-carrageenan suspension in Distilled Water was injected into the plantar side of the right hind paws of the mice. After 3.5 hours after the λ-carrageenan administration, the animals were placed on a hotplate apparatus maintained at 57° C., and the time until the first response was recorded.

Structure (SMILES) | Response time at 3.5 h, avg [s] | Response time at 3.5 h | average response time compared with pretreatment baseline response time
COCC(=O)N1C[C@@H]2C[C@@H]3C1[C@@H](O)[C@H](C2)N3Cc1cccc(C(N)=O)c1 (relative stereo) [Compound of Formula XXII, 3-(((2S*,3S*,6R*,7aR*)-3-hydroxy-4-(2-methoxyacetyl)octahydro-1H-2,6-methanopyrrolo[3,2-b]pyridin-1-yl)methyl)benzamide] | 12.2 | 12 sec (2×) and 14 sec and 13 sec and 10 sec | exceeded the pretreatment baseline response time
O=C(O[C@H]1[C@@H]2[C@@H]3C[C@@H](C[C@H]1N3Cc1ccc3c(c1)OCO3)CN2C(=O)c1ccc(F)cn1)C1CC1 (relative stereo) [Compound of Formula XVIII, (2R*,3R*,3aS*,6S*,7aS*)-1-(benzo[d][1,3]dioxol-5-ylmethyl)-4-(5-fluoropicolinoyl)octahydro-1H-2,6-methanopyrrolo[3,2-b]pyridin-3-yl cyclopropanecarboxylate] | 14.6 | 16 sec (2×) and 14 sec and 12 sec and 15 sec | exceeded the pretreatment baseline response time
